In US20210005278A1, “SYSTEMS AND METHODS FOR PREDICTIVE NETWORK MODELING FOR COMPUTATIONAL SYSTEMS, BIOLOGY AND DRUG TARGET DISCOVERY” (ARIZONA BOARD OF REGENTS ON BEHALF OF THE UNIVERSITY OF …, priority 2018, published 2021):
Entries after “also recorded” stand apart in the source; their conditions may differ.

Key:
human SGBS preadipocytes = test: Growth assay in human SGBS preadipocytes (crystal violet); type: cell-based; conditions: 12 to 14 days, 10 nM-10 uM
Procedure: (§1) After the treatment, the cells were fixed in cold methanol for 15 minutes and stained with crystal violet for 10 minutes. Dye excess was washed with water and pictures taken immediately afterwards.

human SKMCs (HMCL-7304) = test: Growth assay in human SKMCs (crystal violet); type: cell-based; conditions: 12 to 14 days, 10 nM-10 uM
Procedure: as §1

iPSC lines = test: HMGCR inhibition in iPSC lines, RNA-seq differential expression; type: cell-based, human; conditions: 1 uM, 12 h
Procedure: Previous efforts have validated predictive networks through similar approaches.
For the expression residuals used for the co-expression and predictive network analyses, 2 analysis streams were adopted: one where there was use of all samples without adjusting for patient ID (AS) and one where there was an averaging of residuals per patient (ApP). Differentially expressed genes were determined using a linear model, as implemented in the 1mFit function from the limma package v3.18.13 in R. Statistical significance was assessed using a cut-off of 0.05 on FDR adjusted p-values.
iPSCs from 6 IS and 6 IR individuals were maintained in feeder-free conditions using mTesr1 (Stem Cell technologies, Inc) supplemented with 1 mM L-Glutamine, 1 mM Penicillin-Streptomycin, 0.1 μ/ml Fungizone.) on 5% matrigel coated 6-well TC plates. For passaging, cells were washed once with PBS and treated with pre-warmed 1 mM EDTA (Sigma), incubated at 37 degrees for 1-5 minutes, and resuspended in fresh mTesr1 medium 2 μM Thiazovivin (Millipore). After 12 hours incubation in Thiazovivin, medium was changed daily with fresh mTesr1. […] Cells were washed once in PBS and harvested for RNA extraction using PureLInk RNA mini kit (Thermo Fisher Scientific). Total RNA was quantified using a Nanodrop (Thermo Scientific). RNA samples with a A260/280 ratio <1.8 or >2.3 were excluded from further processing and the RNA was sequenced using the Illumina HiSeq 2500 system.

SGBS cells = test: Adipogenic differentiation assay (Oil Red O) in SGBS cells; type: cell-based, human; conditions: inhibitor added at day 0 of differentiation, 10 nM-10 uM
Procedure: For adipogenic differentiation SGBS cells were grown to confluence and subjected to a two-step differentiation process. […] Afterwards, cells were exposed to DMEM/F12 supplemented with 0.01 mg/mL of transferrin, […] of insulin, 100 nM cortisol, and 0.2 nM 3,3′,5-Triiodo-L-thyronine for additional 12 days. HMCL-7304 cells were differentiated in presence of SKMC differentiation medium (PromoCell) for 4-5 days before glucose uptake was performed. […] Differentiation quantification was performed with Oil Red 0. Differentiated SGBS cells were fixed with 10% formalin for 10 minutes at room temperature. After washing with 60% isopropanol, samples were incubated in Oil Red 0 (Sigma-Aldrich) for 10 minutes at room temperature. Oil Red 0 was eluted with 100% isopropanol for 10 minutes. The solution was then transferred into a 96-well plate and absorbance measured at 500nm.

[1] = test system: human adipocytes (differentiated SGBS cells); test: Insulin mediated glucose uptake assay in mature human adipocytes (differentiated SGBS); type: cell-based; conditions: 24 hours pretreatment 10 nM-10 uM, 100 nM insulin stimulation
Procedure: For adipogenic differentiation SGBS cells were grown to confluence and subjected to a two-step differentiation process. […] Afterwards, cells were exposed to DMEM/F12 supplemented with 0.01 mg/mL of transferrin, […] of insulin, 100 nM cortisol, and 0.2 nM 3,3′,5-Triiodo-L-thyronine for additional 12 days. HMCL-7304 cells were differentiated in presence of SKMC differentiation medium (PromoCell) for 4-5 days before glucose uptake was performed. […] After the preincubation, the cells were starved for 2 hours prior to 30 minutes of 100 nM insulin stimulation at 37 degrees. […] The cells were then washed with PBS, harvested in 300 uL of M-PER lysis buffer (ThermoFisher), and then added to scintillation vials containing 4.75 mL of scintillation fluid (Perk Elmer). Radioactive counts were determined with a scintillation counter (Model ID: Beckman LS6500). Excess samples were subjected to BCA assay for protein quantification and normalization of radioactive counts. All samples were represented as fold change compared to the unstimulated (no insulin) condition.

Row | SMILES | preadipocyte growth (human SGBS preadipocytes) | cell proliferation in SKMCs (human SKMCs (HMCL-7304)) | number of DE genes, treated vs untreated samples (iPSC lines; IR iPSC group only) | number of DE genes, treated vs untreated samples (iPSC lines; IS iPSC group only) | number of DE genes, treated vs untreated samples (iPSC lines; all iPSC lines (6 IR, 6 IS)) | differentiation efficiency (adipogenesis, Oil Red O absorbance at 500 nm) (SGBS cells) | insulin mediated glucose uptake [1]
1 | NCCCC(O)(P(=O)(O)O)P(=O)(O)O [alendronate] | only HMGCR inhibition demonstrates a detectable decrease | only a significant effect on glucose uptake | – | – | – | – | –
2 | CC(C)c1c(C(=O)Nc2ccccc2)c(-c2ccccc2)c(-c2ccc(F)cc2)n1CC[C@@H](O)C[C@@H](O)CC(=O)O [atorvastatin] | detectable decrease | inhibits; also recorded: affected | 785 | 711 | 3205 | – | –
3 | CN(C/C=C/C#CC(C)(C)C)Cc1cccc2ccccc12 [terbinafine] | only HMGCR inhibition demonstrates a detectable decrease | only a significant effect on glucose uptake | – | – | – | only HMGCR inhibition demonstrates a detectable decrease | decrease insulin mediated glucose uptake
